Experimental data taken from US6127372A, “Sulfonamide inhibitors of aspartyl protease” (Vertex Pharmaceuticals, Incorporated, priority 1996, dated 2000).

target: HIV-1 protease (Human immunodeficiency virus type 1 group M subtype B, UniProt P04585); assay: Inhibition constants against HIV-1 protease, method of Pennington et al.; type: biochemical; settings: not given

With COc1ccc(S(=O)(=O)N(CC2CCCC2)C[C@@H](O)CN(CCc2ccccc2)C(=O)Oc2ccccc2)cc1 [Compound 1022] as the compound, how does the Ki read?
Its Ki is 170 nM.

same assay, conditions: HIV-1 protease; method of Pennington et al.; read-out: Ki

For COc1ccc(S(=O)(=O)N(CC2CCCC2)C[C@H](O)CN(CCc2ccccc2)C(=O)O[C@H]2CCOC2)cc1 [Compound 1000], which Ki is on record?
Its Ki is 100 nM.

How did the Ki turn out when COc1ccc(S(=O)(=O)N(CC(C)C)CC(O)CNc2ccccc2C(=O)NC(C)(C)C)cc1 (stereo not drawn) [Compound 1002] was run?
The Ki was 16000 nM.

With COc1ccc(S(=O)(=O)N(CC2CCCC2)C[C@@H](O)CN(CCC(C)C)C(=O)O[C@H]2CCOC2)cc1 [Compound 1003] as the compound, how does the Ki read?
The Ki was 1200 nM.

COc1ccc(S(=O)(=O)N(CC2CCCC2)C[C@@H](O)CN(CC(C)C)C(=O)O[C@H]2CCOC2)cc1 [Compound 1004] was tested. Which Ki did it give?
The Ki was 1300 nM.

How did the Ki turn out when COc1ccc(S(=O)(=O)N(CC2CCCC2)C[C@@H](O)CN(CCCc2ccccc2)C(=O)O[C@H]2CCOC2)cc1 [Compound 1006] was run?
Its Ki is 470 nM.

For O=C(O[C@H]1CCOC1)N(CCc1ccccc1)C[C@H](O)CN(CC1CCCC1)S(=O)(=O)c1ccc(O)cc1 [Compound 1007], which Ki is on record?
The Ki was 35 nM.

Which Ki does the source give for Nc1ccc(S(=O)(=O)N(CC2CCCC2)C[C@@H](O)CN(CCc2ccccc2)C(=O)O[C@H]2CCOC2)cc1 [Compound 1008] here?
Its Ki is 260 nM.

How did the Ki turn out when Nc1cccc(S(=O)(=O)N(CC2CCCC2)C[C@@H](O)CN(CCc2ccccc2)C(=O)O[C@H]2CCOC2)c1 [Compound 1009] was run?
Its Ki is 120 nM.

COc1ccc(S(=O)(=O)N(CC2CCCC2)C[C@@H](O)CN(CCC2CCCCC2)C(=O)O[C@H]2CCOC2)cc1 [Compound 1011] was tested. Which Ki did it give?
The Ki was 110 nM.

With CC(C)CN(C[C@@H](O)CN(CCc1ccccc1)C(=O)O[C@H]1CCOC1)S(=O)(=O)c1cccc(N)c1 [Compound 1012] as the compound, how does the Ki read?
The Ki was 200 nM.

With Nc1cccc(S(=O)(=O)N(CC2CCCC2)C[C@@H](O)CN(CCc2ccccc2)C(=O)O[C@@H]2COC3OCCC32)c1 (stereo partly drawn) [Compound 1013] as the compound, how does the Ki read?
Its Ki is 50 nM.

Which Ki does the source give for Nc1cccc(S(=O)(=O)N(CC2CCCC2)C[C@@H](O)CN(CCc2ccccc2)C(=O)OC2COCOC2)c1 [Compound 1014] here?
Its Ki is 130 nM.

How did the Ki turn out when COc1ccc(S(=O)(=O)N(CC2CCCC2)C[C@@H](O)CN(CCc2ccc(O)cc2)C(=O)O[C@H]2CCOC2)cc1 [Compound 1016] was run?
Its Ki is 75 nM.

For COc1ccc(S(=O)(=O)N(CC2CCCC2)C[C@@H](O)CN(CCc2ccc(O)c(O)c2)C(=O)O[C@H]2CCOC2)cc1 [Compound 1017], which Ki is on record?
The Ki was 110 nM.

Which Ki does the source give for COc1ccc(S(=O)(=O)N(CC2CCCC2)C[C@@H](O)CN(CCc2ccccc2)C(=O)OCc2ccccc2)cc1 [Compound 1019] here?
Its Ki is 20 nM.

How did the Ki turn out when COc1ccc(S(=O)(=O)N(CC2CCCC2)C[C@@H](O)CN(CCc2ccccc2)C(=O)Cc2ccccc2)cc1 [Compound 1020] was run?
Its Ki is 170 nM.

Which Ki does the source give for C=CCOC(=O)N(CCc1ccccc1)C[C@H](O)CN(CC1CCCC1)S(=O)(=O)c1ccc(OC)cc1 [Compound 1021] here?
Its Ki is 70 nM.

Which Ki does the source give for O=C(OCc1cccnc1)N(CCc1ccccc1)C[C@H](O)CN(CC1CCCC1)S(=O)(=O)c1ccccc1 [Compound 1023] here?
The Ki was 52 nM.

Which Ki does the source give for COc1ccc(S(=O)(=O)N(CC2CCCC2)C[C@@H](O)CN(CCc2ccccc2)C(=O)c2cccc(O)c2C)cc1 [Compound 1024] here?
Its Ki is 66 nM.

COc1ccc(S(=O)(=O)N(CC2CCCC2)C[C@@H](O)CN(CCc2cccnc2)C(=O)OCc2cccnc2)cc1 [Compound 1025] was tested. Which Ki did it give?
The Ki was 270 nM.

For COc1ccc(S(=O)(=O)N(CC2CCCC2)C[C@@H](O)CN(CCc2ccccc2)C(=O)c2ccccc2)cc1 [Compound 1026], which Ki is on record?
The Ki was 20 nM.

How did the Ki turn out when COc1ccc(S(=O)(=O)N(CC(O)CN(CCc2ccccc2)C(=O)[C@H](NC(=O)OCc2ccccc2)C(C)C)CC2CCCC2)cc1 (stereo partly drawn) [Compound 1027] was run?
The Ki was 7 nM.

How did the Ki turn out when COc1ccc(S(=O)(=O)N(CC2CCCC2)C[C@@H](O)CN(CCc2ccccc2)CC(=O)c2ccccc2)cc1 [Compound 1028] was run?
Its Ki is 800 nM.

With CCCN(CC(=O)c1ccccc1)C[C@H](O)CN(CC1CCCC1)S(=O)(=O)c1ccc(OC)cc1 [Compound 1029] as the compound, how does the Ki read?
The Ki was 3500 nM.

COc1ccc(S(=O)(=O)N(CC(C)C)C[C@@H](O)CC(=O)N2CCN(C(=O)OCc3ccccc3)C[C@H]2C(=O)NC(C)(C)C)cc1 [Compound 1031] was tested. Which Ki did it give?
Its Ki is 1400 nM.

Which Ki does the source give for COc1ccc(S(=O)(=O)N(CC(C)C)C[C@@H](O)CCN2CCCC[C@H]2C(=O)NC(C)(C)C)cc1 [Compound 1033] here?
Its Ki is 1600 nM.

For COc1ccc(S(=O)(=O)N(CC(C)C)C[C@@H](O)CCN(CC(C)C)S(=O)(=O)N(C)C)cc1 [Compound 1034], which Ki is on record?
Its Ki is 1100 nM.

For COc1ccc(S(=O)(=O)N(CCc2ccccc2)CC[C@H](O)CN(CC(C)C)S(=O)(=O)c2ccc(OC)cc2)cc1 [Compound 1035], which Ki is on record?
Its Ki is 3600 nM.

How did the Ki turn out when COc1ccc(S(=O)(=O)N(CC(C)C)C[C@@H](O)CCN(CCc2ccccc2)C(=O)OC2COC3OCCC23)cc1 (stereo partly drawn) [Compound 1036] was run?
The Ki was 8000 nM.

Which Ki does the source give for COc1ccc(S(=O)(=O)N(CC(C)C)C[C@@H](O)CCN(CCc2ccccc2)C(=O)O[C@H]2CCOC2)cc1 [Compound 1037] here?
The Ki was greater than 10000 nM.

For COc1ccc(S(=O)(=O)N(CC(C)C)C[C@H](O)CCN(CCc2ccccc2)C(=O)O[C@H]2CCOC2)cc1 [Compound 1038], which Ki is on record?
Its Ki is greater than 10000 nM.

Which Ki does the source give for COc1ccc(S(=O)(=O)N(CC(C)C)C[C@@H](O)CCN(CC2CCCC2)C(=O)O[C@H]2CCOC2)cc1 [Compound 1039] here?
Its Ki is greater than 3000 nM.

For COc1ccc(S(=O)(=O)N(CC(C)C)C[C@H](O)CCN(CC2CCCC2)C(=O)O[C@H]2CCOC2)cc1 [Compound 1040], which Ki is on record?
The Ki was greater than 10000 nM.

For COc1ccc(S(=O)(=O)N(CC(C)C)C[C@@H](O)CCN(CC2CCCC2)S(=O)(=O)c2cccc(N)c2)cc1 [Compound 1041], which Ki is on record?
The Ki was 270 nM.

With Nc1cccc(S(=O)(=O)N(CC2CCCC2)C[C@@H](O)CN(CCc2ccccc2)C(=O)c2cccnc2)c1 [Compound 1044] as the compound, how does the Ki read?
The Ki was 220 nM.

Which Ki does the source give for Nc1cccc(S(=O)(=O)N(CC2CCCC2)C[C@@H](O)CN(CCc2ccccc2)C(=O)c2ccncc2)c1 [Compound 1045] here?
Its Ki is 14 nM.

With COc1ccc(S(=O)(=O)N(CC(O)CN2C(=O)OC[C@@H]2Cc2ccccc2)CC2CCCC2)cc1 (stereo partly drawn) [Compound 1046] as the compound, how does the Ki read?
The Ki was 1200 nM.

With COc1ccc(S(=O)(=O)N(CC2CCCC2)C[C@@H](O)CN(CCc2ccccc2)C(C)=O)cc1 [Compound 1047] as the compound, how does the Ki read?
Its Ki is 1600 nM.

COc1ccc(S(=O)(=O)N(CC(O)CN2CC(c3ccccc3)c3ccccc3C2=O)CC2CCCC2)cc1 (stereo not drawn) [Compound 1048] was tested. Which Ki did it give?
Its Ki is 3300 nM.

For COc1ccc(S(=O)(=O)N(CC(C)C)C[C@@H](O)CC(Cc2ccccc2)C(=O)N[C@H]2c3ccccc3C[C@H]2O)cc1 (stereo partly drawn) [LII], which Ki is on record?
Its Ki is 11 nM.

How did the Ki turn out when COc1ccc(S(=O)(=O)N(CC(C)C)C[C@@H](O)CC(Cc2ccccc2)C(=O)NCC(C)C)cc1 (stereo partly drawn) [LI] was run?
The Ki was 5000 nM.

For COc1ccc(S(=O)(=O)N(CC[C@H](O)CN(CC(C)C)S(=O)(=O)c2ccc(OC)cc2)CC2CCCC2)cc1 [LVa], which Ki is on record?
Its Ki is 167 nM.

For COc1ccc(S(=O)(=O)N(CC[C@H](O)CN2CCN(C(=O)OCc3ccccc3)C[C@H]2C(=O)NC(C)(C)C)CC(C)C)cc1 [LXXVI], which Ki is on record?
Its Ki is 2700 nM.

For COc1ccc(S(=O)(=O)N(CC[C@H](O)CN(CC(C)C)S(=O)(=O)c2ccc(OC)cc2)CC(C)C)cc1 [XLIVa], which Ki is on record?
The Ki was 400 nM.

With COc1ccc(S(=O)(=O)N(CC[C@H](O)CN2CCCC[C@H]2C(=O)NC(C)(C)C)CC(C)C)cc1 [XLVIII] as the compound, how does the Ki read?
The Ki was 3300 nM.

With CC(C)CN(C[C@@H](O)CCN(CC1CCCC1)S(=O)(=O)c1ccc(O)cc1)S(=O)(=O)c1ccc(O)cc1 [XLV] as the compound, how does the Ki read?
The Ki was 160 nM.

same assay, conditions: read-out: Ki

COc1ccc(S(=O)(=O)N(CC2CCCC2)C[C@@H](O)CN(CCc2ccccc2)C(=O)O[C@H]2CCOC2)cc1 [Compound 1001] was tested. Which Ki did it give?
The Ki was 30 nM.
